Source: patent US20060052600A1, “Amino-functional chalcones” (priority 2002, published 2006)
Values after ≈ are worked out from the molar mass of the structure shown.

What was measured:
[1] = test system: panel of anaerobic bacteria (Bacteroides fragilis, Clostridium perfringens, Clostridium difficele); assay type: cell-based; conditions: single concentration 100 μM
[2] = test system: Enterococcus faecalis ATCC29212; test: MIC determination in broth microdilution assay
Eschericia coli ESS = test: MIC determination in broth microdilution assay
[3] = test system: Staphylococcus aureus ATCC29213; test: MIC determination in broth microdilution assay
[4] = test system: Streptococcus pneumoniae #998 (clinical isolate); test: MIC determination in broth microdilution assay
[5] = test system: Staphylococcus intermedius #2357 (clinical isolate); test: MIC determination in broth microdilution assay
[6] = test system: Staphylococcus aureus ATCC33591 (resistant to methicillin); test: MIC determination in broth microdilution assay
[7] = test system: Enterococcus faecium #17501 (vancomycin-resistant clinical isolate); test: MIC determination in broth microdilution assay
[8] = test system: panel of non-fastidious bacteria (Gram-positive pathogens and Eschericia coli); test: Activity against non-fastidious bacteria (panel, results in words); conditions: Gram-positive pathogens
[9] = test system: DHODH (dihydroorotate dehydrogenase); test: DHODH assay; assay type: biochemical; conditions: test concentration not given
[10] = Determination of metabolic stability (liver microsomes); assay type: in vitro ADME, rat; conditions: for Metabolic turn-over (rat) in vitro: 20 μM, 15 min, 37° C.
Procedure: Samples were incubated for 15 min at 37° C. and the reactions were terminated by addition of equal volumes of acetonitrile. Blank incubations were performed at the same concentration but without addition of microsomes. Both blank and microsome-containing samples were made in […] of three. […] The fraction of compound metabolised during the 15 min of incubation was determined by comparison of blank and microsome-containing samples using a Waters Alliance 2690 separation module and Waters 996 PDA-detector (Waters. […] This was followed by a 5 minutes linear gradient to initial conditions, which were maintained for 5 min. The flow rate was 0.20 ml/min and injection volume 10 μl.

[11] = Determination of solubility; assay type: physicochemical; conditions: 0.3 M phosphate buffer, 24 hours
Procedure: Solubility of the compounds was determined by preparing a saturated solution of compound in 0.3 M phosphate buffer (pH 7.4±0.3) in a brown glass tube. The suspensions were rotated slowly for 24 hours. Aliquots were centrifuged for 10 minutes at 14.000 rpm and supernatants were diluted in 40% (v/v) acetonitrile in water prior to HPLC analysis. Concentrations of analytes were quantified against a standard curve and used as term of solubility.
The HPLC-UV method used for the assessment of solubility is the same as used in the in vitro metabolism assay.

CN(C)Cc1ccc(C(=O)/C=C/c2ccc(Cl)cc2Cl)cc1 [A011, (E)-3-(2,4-Dichloro-phenyl)-1-(4-dimethylaminomethyl-phenyl)-propenone]
activity against anaerobic bacteria [1]: activity against all microorganisms within the test panel

CCCCN(CCCC)c1cccc(/C=C/C(=O)c2ccc(OC)c(CN(C)C)c2)c1 [A129, (E)-3-(3-Dibutylamino-phenyl)-1-(3-dimethylaminomethyl-4-methoxy-phenyl)-propenone]
MIC, D: Enterococcus faecalis ATCC29212 [2]: 9.4 µM (≈ 3.97 µg/mL)
MIC, H: Eschericia coli ESS (Eschericia coli ESS): 9.4 µM (≈ 3.97 µg/mL)
MIC, A: Staphylococcus aureus ATCC29213 [3]: 4.7 µM (≈ 1.99 µg/mL)
MIC, F: Streptococcus pneumoniae #998 [4]: 37.5 µM (≈ 15.8 µg/mL)
MIC, C: Staphylococcus intermedius #2357 [5]: 9.4 µM (≈ 3.97 µg/mL)
MIC, B: Staphylococcus aureus ATCC33591 [6]: 9.4 µM (≈ 3.97 µg/mL)
MIC, E: Enterococcus faecium #17501 [7]: 9.4 µM (≈ 3.97 µg/mL)

CCCCN(CCCC)c1ccc(/C=C/C(=O)c2ccc(CN(C)C)cc2)cc1 [A033, (E)-3-(4-Dibutylamino-phenyl)-1-(4-dimethylaminomethyl-phenyl)-propenone]
MIC, D: Enterococcus faecalis ATCC29212 [2]: 9.4 µM (≈ 3.69 µg/mL)
potency against Gram-positive pathogens in comparison with Licochalcone A [8]: increased potency
MIC, H: Eschericia coli ESS (Eschericia coli ESS): 150.0 µM (≈ 58.9 µg/mL)
MIC, A: Staphylococcus aureus ATCC29213 [3]: 4.7 µM (≈ 1.85 µg/mL)
MIC, F: Streptococcus pneumoniae #998 [4]: 75.0 µM (≈ 29.4 µg/mL)
MIC, C: Staphylococcus intermedius #2357 [5]: 4.7 µM (≈ 1.85 µg/mL)
MIC, B: Staphylococcus aureus ATCC33591 [6]: 9.4 µM (≈ 3.69 µg/mL)
MIC, E: Enterococcus faecium #17501 [7]: 9.4 µM (≈ 3.69 µg/mL)

CCCCN(CCCC)c1ccc(/C=C/C(=O)c2ccc(CN3CCN(C)CC3)cc2)cc1 [A025, (E)-3-(4Dibutylamino-phenyl)-1-[4-(4-methyl-piperazin-1-ylmethyl)-phenyl]-propenone]
MIC, D: Enterococcus faecalis ATCC29212 [2]: 9.4 µM (≈ 4.21 µg/mL)
potency against Gram-positive pathogens in comparison with Licochalcone A [8]: increased potency
MIC, H: Eschericia coli ESS (Eschericia coli ESS): 75.0 µM (≈ 33.6 µg/mL)
MIC, A: Staphylococcus aureus ATCC29213 [3]: 9.4 µM (≈ 4.21 µg/mL)
MIC, F: Streptococcus pneumoniae #998 [4]: 37.5 µM (≈ 16.8 µg/mL)
MIC, C: Staphylococcus intermedius #2357 [5]: 9.4 µM (≈ 4.21 µg/mL)
MIC, B: Staphylococcus aureus ATCC33591 [6]: 9.4 µM (≈ 4.21 µg/mL)
Inhibition of DHODH [9]: 26%
MIC, E: Enterococcus faecium #17501 [7]: 9.4 µM (≈ 4.21 µg/mL)

CN1CCN(Cc2cccc(C(=O)/C=C/c3ccc(Cl)cc3Cl)c2)CC1 [A021, (E)-3-(2,4-Dichloro-phenyl)-1-[3-(4-methyl-piperazin-1-ylmethyl)-phenyl]-propenone]
Inhibition of DHODH [9]: 27%

CCCCN(CCCC)c1ccc(/C=C/C(=O)c2ccc(OC)c(CN(C)C)c2)cc1 [A110, (E)-3-(4-Dibutylamino-phenyl)-1-(3-dimethylaminomethyl-4-methoxy-phenyl)-propenone]
Metabolic turn-over (rat) in vitro [10]: 6%

CCCCN(CCCC)c1ccc(/C=C/C(=O)c2ccccc2CN(C)C)cc1 [A030, (E)-3-(4-Dibutylamino-phenyl)-1-(2-dimethylaminomethyl-phenyl)-propenone]
MIC, D: Enterococcus faecalis ATCC29212 [2]: 18.8 µM (≈ 7.38 µg/mL)
potency against Gram-positive pathogens in comparison with Licochalcone A [8]: increased potency
MIC, H: Eschericia coli ESS (Eschericia coli ESS): 18.8 µM (≈ 7.38 µg/mL)
activity against the ESS strain of E. coli (Eschericia coli ESS): considerable activity
MIC, A: Staphylococcus aureus ATCC29213 [3]: 9.4 µM (≈ 3.69 µg/mL)
MIC, F: Streptococcus pneumoniae #998 [4]: 18.8 µM (≈ 7.38 µg/mL)
MIC, C: Staphylococcus intermedius #2357 [5]: 9.4 µM (≈ 3.69 µg/mL)
MIC, B: Staphylococcus aureus ATCC33591 [6]: 9.4 µM (≈ 3.69 µg/mL)
MIC, E: Enterococcus faecium #17501 [7]: 18.8 µM (≈ 7.38 µg/mL)

CCCN(CCC)c1ccc(/C=C/C(=O)c2ccccc2CN(C)C)c(OCC)c1 [A084, (E)-1-(2-Dimethylaminomethyl-phenyl)-3-(4-dipropylamino-2-ethoxy-phenyl)-propenone]
activity against the ESS strain of E. coli (Eschericia coli ESS): considerable activity

COc1ccc(C(=O)/C=C/c2cccc(CN3CCN(C)CC3)c2)cc1 [A013, (E)-1-(4-Methoxy-phenyl)-3-[3-(4-methyl-piperazin-1-ylmethyl)-phenyl]-propenone]
Solubility in aqueous buffer at pH 7.4 [11]: 31.2 mg/ml

COc1ccc(OC)c(/C=C/C(=O)c2ccccc2CN2CCNCC2)c1 [A049, (E)-3-(2,5-Dimethoxy-phenyl)-1-(2-piperazin-1-ylmethyl-phenyl)-propenone]
Metabolic turn-over (rat) in vitro [10]: 0%
Solubility in aqueous buffer at pH 7.4 [11]: 6.3 mg/ml

CN(C)Cc1ccccc1C(=O)/C=C/c1cccc(Nc2cccnc2)c1 [A090, (E)-1-(2-Dimethylaminomethyl-phenyl)-3-[3-(pyridin-3-ylamino)-phenyl]-propenone]
activity against anaerobic bacteria [1]: activity against all microorganisms within the test panel

C=CC(C)(C)c1cc(/C=C/C(=O)c2cccc(CN(C)C)c2)c(OC)cc1O [A137, (E)-3-[5-(1,1-Dimethyl-allyl)-4-hydroxy-2-methoxy-phenyl]-1-(3-dimethylaminomethyl-phenyl)-propenone]
MIC, D: Enterococcus faecalis ATCC29212 [2]: 9.4 µM (≈ 3.57 µg/mL)
MIC, A: Staphylococcus aureus ATCC29213 [3]: 4.7 µM (≈ 1.78 µg/mL)
MIC, F: Streptococcus pneumoniae #998 [4]: 37.5 µM (≈ 14.2 µg/mL)
MIC, C: Staphylococcus intermedius #2357 [5]: 9.4 µM (≈ 3.57 µg/mL)
MIC, B: Staphylococcus aureus ATCC33591 [6]: 9.4 µM (≈ 3.57 µg/mL)
MIC, E: Enterococcus faecium #17501 [7]: 9.4 µM (≈ 3.57 µg/mL)

CN(C)Cc1cccc(C(=O)/C=C/c2ccc(Cl)cc2Cl)c1 [A020, (E)-3-(2,4-Dichloro-phenyl)-1-(3-dimethylaminomethyl-phenyl)-propenone]
Inhibition of DHODH [9]: 23%

CCN(CC)Cc1ccccc1C(=O)/C=C/c1ccc(Cl)cc1Cl [A045, (E)-3-(2,4-Dichloro-phenyl)-1-(2-diethylaminomethyl-phenyl)-propenone]
Inhibition of DHODH [9]: 20%

COc1ccc(Nc2cccnc2)cc1/C=C/C(=O)c1ccccc1CN(C)C [A102, (E)-1-(2-Dimethylaminomethyl-phenyl)-3-[2-methoxy-5-(pyridin-3-ylamino)-phenyl]-propenone]
Metabolic turn-over (rat) in vitro [10]: 2%
metabolism (turn-over), rat ([10]; rat): 2%

CN1CCN(Cc2ccccc2C(=O)/C=C/c2ccc(Cl)cc2Cl)CC1 [A026, (E)-3-(2,4-Dichloro-phenyl)-1-[2-(4-methyl-piperazin-1-ylmethyl)-phenyl]-propenone]
activity against anaerobic bacteria [1]: activity against all microorganisms within the test panel

COc1ccc(C(=O)/C=C/c2ccc(OC)c(CN(C)C)c2)cc1 [A086, (E)-3-(3-Dimethylaminomethyl-4-methoxy-phenyl)-1-(4-methoxy-phenyl)-propenone]
Solubility in aqueous buffer at pH 7.4 [11]: 8.9 mg/ml

COc1ccc(C(=O)/C=C/c2cccc(CNCCN(C)C)c2)cc1 [A010, (E)-3-{3-[(2-Dimethylamino-ethylamino)-methyl]-phenyl}-1-(4-methoxy-phenyl)-propenone]
Metabolic turn-over (rat) in vitro [10]: 1%
Solubility in aqueous buffer at pH 7.4 [11]: 33.4 mg/ml

COc1ccc(C(=O)/C=C/c2ccc(CNCCN(C)C)cc2)cc1 [A005, (E)-3-{4-[(2-Dimethylamino-ethylamino)-methyl]-phenyl}-1-(4-methoxy-phenyl)-propenone]
Solubility in aqueous buffer at pH 7.4 [11]: >6 mg/ml

C=CC(C)(C)c1cc(/C=C/C(=O)c2ccccc2CN2CCN(C)CC2)c(OC)cc1Cl [A083, (E)-3-[4-Chloro-5-(1,1-dimethyl-allyl)-2-methoxy-phenyl]-1-[2-(4-methyl-piperazin-1-ylmethyl)-phenyl]-propenone]
MIC, D: Enterococcus faecalis ATCC29212 [2]: 18.8 µM (≈ 8.52 µg/mL)
potency against Gram-positive pathogens in comparison with Licochalcone A [8]: increased potency
MIC, H: Eschericia coli ESS (Eschericia coli ESS): 9.4 µM (≈ 4.26 µg/mL)
activity against the ESS strain of E. coli (Eschericia coli ESS): considerable activity
MIC, A: Staphylococcus aureus ATCC29213 [3]: 9.4 µM (≈ 4.26 µg/mL)
MIC, F: Streptococcus pneumoniae #998 [4]: 18.8 µM (≈ 8.52 µg/mL)
MIC, C: Staphylococcus intermedius #2357 [5]: 18.8 µM (≈ 8.52 µg/mL)
MIC, B: Staphylococcus aureus ATCC33591 [6]: 9.4 µM (≈ 4.26 µg/mL)
MIC, E: Enterococcus faecium #17501 [7]: 9.4 µM (≈ 4.26 µg/mL)

O=C(/C=C/c1ccc(Cl)cc1Cl)c1ccccc1CN1CCOCC1 [A037, (E)-3-(2,4-Dichloro-phenyl)-1-(2-morpholin-4-ylmethyl-phenyl)-propenone]
activity against anaerobic bacteria [1]: activity against all microorganisms within the test panel

COc1ccc(OC)c(/C=C/C(=O)c2ccccc2CN(C)C)c1 [A029, (E)-3-(2,5-Dimethoxy-phenyl)-1-(2-dimethylaminomethyl-phenyl)-propenone]
Metabolic turn-over (rat) in vitro [10]: 3%

CNCc1cccc(/C=C/C(=O)c2ccc(OC)cc2)c1 [A099, (E)-1-(4-Methoxy-phenyl)-3-(3-methylaminomethyl-phenyl)-propenone]
Metabolic turn-over (rat) in vitro [10]: 7%

COc1ccc(C(=O)/C=C/c2cccc(CN(C)CCN(C)C)c2)cc1 [A069, (E)-3-(3-{[(2-Dimethylamino-ethyl)-methyl-amino]-methyl}-phenyl)-1-(4-methoxy-phenyl)-propenone]
Solubility in aqueous buffer at pH 7.4 [11]: >10 mg/ml
